# According to patent US6534090B2, “Oral osmotic controlled drug delivery system for a sparingly soluble drug” (Sun Pharmaceutical Advanced Research Centre Limited, priority 2001, dated 2003):
# Key:
# [1] = Comparative experiments: anhydrous carbamazepine suspended in water or aqueous solution of a crystal habit modifier; assay type: physicochemical
# [2] = below 4 μg/ml ineffective, above 12 μg/ml side-effects likely; cited from earlier work
# [3] = cited from earlier work
smiles,measurement,setting,value
"NC(=O)N1c2ccccc2C=Cc2ccccc21 [carbamazepine, 5H-dibenz-[b,f]azepine-5-carboxamide]",conversion of anhydrous carbamazepine microcrystals,[1]; in the presence of hydroxypropyl methylcellulose,did not convert to the dihydrate crystals
same,length of crystals formed from anhydrous carbamazepine,"[1]; in water, absence of a crystal habit modifier, long discrete needles that cluster",≤ 500 μm
same,therapeutic range (blood levels),[2],4 to 12 µg/mL
same,solubility in water,[3],sparingly soluble in water
